# In ChEMBL document CHEMBL4130519, “Resorcinol-Based Grp94-Selective Inhibitors” (ACS Med Chem Lett, 2017):
# Legend:
# [1] = target: Heat shock protein HSP 90-alpha (Homo sapiens, UniProt P07900); test: Displacement of FITC-GDA from Hsp90alpha (unknown origin) after 24 hrs by fluorescence polarization assay; conditions: read-out: Kd(app)
# Endoplasmin = Endoplasmin (Canis lupus familiaris, UniProt P41148); test: Displacement of FITC-GDA from recombinant canine Grp94 expressed in baculovirus infected Sf21 insect cells after 24 hrs by fluorescence polarization assay; conditions: read-out: Kd(app)
# RPMI-8226 = test: Growth inhibition of human RPMI8226 cells after 72 hrs by MTS/PMS assay; format: functional; conditions: RPMI-8226, 72 h
# Heat shock protein HSP90 [2] = target: T1, Heat shock protein HSP90 (Homo sapiens, UniProt P07900+P08238); test: Inhibition of Hsp90 in human RPMI8226 cells assessed as induction of Hsp70 expression at 0.75 to 7.5 uM after 24 hrs by Western blot analysis; format: cell-based
# Heat shock protein HSP90 [3] = target: T1, Heat shock protein HSP90; test: Inhibition of Hsp90 in human RPMI8226 cells assessed as induction of Akt degradation at 0.75 to 7.5 uM after 24 hrs by Western blot analysis; format: cell-based
# Endoplasmin, sequence (P41148 whole entry): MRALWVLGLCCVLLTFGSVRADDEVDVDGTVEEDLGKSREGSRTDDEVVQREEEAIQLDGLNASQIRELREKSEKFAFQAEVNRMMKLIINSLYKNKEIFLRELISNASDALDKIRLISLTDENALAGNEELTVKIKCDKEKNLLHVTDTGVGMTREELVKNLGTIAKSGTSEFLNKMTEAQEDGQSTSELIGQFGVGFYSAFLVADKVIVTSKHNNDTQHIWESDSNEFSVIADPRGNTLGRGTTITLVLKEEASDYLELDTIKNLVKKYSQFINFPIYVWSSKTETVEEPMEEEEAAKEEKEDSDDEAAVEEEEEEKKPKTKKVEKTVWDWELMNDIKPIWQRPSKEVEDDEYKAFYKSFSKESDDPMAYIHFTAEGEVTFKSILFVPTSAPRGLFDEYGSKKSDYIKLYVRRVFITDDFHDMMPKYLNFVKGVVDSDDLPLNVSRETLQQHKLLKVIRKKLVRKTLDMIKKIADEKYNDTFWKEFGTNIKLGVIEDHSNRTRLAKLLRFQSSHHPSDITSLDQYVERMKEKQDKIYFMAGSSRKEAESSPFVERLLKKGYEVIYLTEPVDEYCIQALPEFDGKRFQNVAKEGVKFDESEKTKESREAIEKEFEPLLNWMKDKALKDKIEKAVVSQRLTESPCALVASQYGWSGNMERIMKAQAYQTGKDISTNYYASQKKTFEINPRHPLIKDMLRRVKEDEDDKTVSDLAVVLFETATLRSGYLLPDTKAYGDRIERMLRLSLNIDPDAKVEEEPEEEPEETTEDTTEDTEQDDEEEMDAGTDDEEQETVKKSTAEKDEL
Structure (SMILES),Kd [1],Kd (Endoplasmin),GI50 (RPMI-8226),inhibition (INH) (Heat shock protein HSP90 [2]),inhibition (INH) (Heat shock protein HSP90 [3])
O=C(c1cc(Sc2ccccc2)c(O)cc1O)N1Cc2ccccc2C1,26 nM,13 nM,–,–,–
O=C(c1cc(N2CCc3ccccc32)c(O)cc1O)N1Cc2ccccc2C1,> 50000 nM,9890 nM,–,–,–
COC1=C2C[C@@H](C)C[C@H](OC)[C@H](O)[C@@H](C)/C=C(\C)[C@H](OC(N)=O)[C@@H](OC)/C=C\C=C(/C)C(=O)NC(=CC1=O)C2=O [GELDANAMYCIN],–,–,3 nM,–,–
O=C(c1cc(Cc2ccc(Cl)cc2)c(O)cc1O)N1Cc2ccccc2C1,60 nM,13 nM,3000 nM,–,–
O=C(c1cc(Br)c(O)cc1O)N1Cc2ccccc2C1,–,20 nM,–,–,–
O=C(c1cc(Cc2ccccc2)c(O)cc1O)N1Cc2ccccc2C1,66 nM,15 nM,3700 nM,–,–
O=C(c1cc(-c2ccccc2)c(O)cc1O)N1Cc2ccccc2C1,> 100000 nM,> 100000 nM,> 25000 nM,–,–
O=C(c1cc(Cc2ccc(F)cc2)c(O)cc1O)N1Cc2ccccc2C1,77 nM,8 nM,1400 nM,Not Active,Not Active
Cc1ccc(Cc2cc(C(=O)N3Cc4ccccc4C3)c(O)cc2O)cc1,40 nM,40 nM,2700 nM,–,–
Cc1ccc(C)c(Sc2cc(C(=O)N3Cc4ccccc4C3)c(O)cc2O)c1,31 nM,29 nM,–,–,–
O=C(c1cc(Sc2ccc(O)cc2)c(O)cc1O)N1Cc2ccccc2C1,52 nM,70 nM,–,–,–
Cc1ccc(Sc2cc(C(=O)N3Cc4ccccc4C3)c(O)cc2O)c(C)c1,70 nM,30 nM,–,–,–

# Results, then the compound that gave them:
Kd [1],Kd (Endoplasmin),GI50 (RPMI-8226),inhibition (INH) (Heat shock protein HSP90 [2]),inhibition (INH) (Heat shock protein HSP90 [3]),Structure (SMILES)
> 10000 nM,> 10000 nM,13800 nM,–,–,COC(=O)c1cc(C(=O)N2Cc3ccccc3C2)c(O)cc1O
3520 nM,770 nM,–,–,–,CCOC(=O)c1cc(C(=O)N2Cc3ccccc3C2)c(O)cc1O
460 nM,59 nM,–,–,–,O=C(c1cc(Sc2ccc(Cl)cc2Cl)c(O)cc1O)N1Cc2ccccc2C1
29 nM,31 nM,–,–,–,O=C(c1cc(Sc2cc(Cl)cc(Cl)c2)c(O)cc1O)N1Cc2ccccc2C1
–,–,10200 nM,–,–,COC(=O)c1c(O)cc(O)c(Cl)c1CCc1nccn1Cc1ccccc1
65 nM,29 nM,–,–,–,O=C(c1cc(Sc2ccccc2O)c(O)cc1O)N1Cc2ccccc2C1
37 nM,34 nM,1900 nM,–,–,COc1cccc(Sc2cc(C(=O)N3Cc4ccccc4C3)c(O)cc2O)c1
200 nM,60 nM,–,–,–,O=C(c1cc(Cc2ccccc2Cl)c(O)cc1O)N1Cc2ccccc2C1
66 nM,21 nM,–,–,–,Cc1ccc(Sc2cc(C(=O)N3Cc4ccccc4C3)c(O)cc2O)cc1C
